Laboratory results published in patent US11339171B2, “MDM2 inhibitors” (Gan & Lee Pharmaceuticals, priority 2017, dated 2022).

Target: T1, MDM2 (Homo sapiens, UniProt Q00987)
T1 construct: made in house
Test: Inhibition test of MDM2-P53 (GST-MDM2, Biotin-P53, Anti-GST-Tb, SA-XL665)
Type: binding
Conditions: not given
Outline: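 HTRF-type assay using 4 nM GST-MDM2 (final), Biotin-P53, SA-XL665 and anti-GST-Tb in PBS with 0.1% BSA, 5 mM DTT and 1 mM AEBSF. Compounds in 5-fold serial dilutions over twelve points; incubation 90 min at 25° C with shaking before plate-reader read-out.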

T1 sequence (Q00987 whole entry): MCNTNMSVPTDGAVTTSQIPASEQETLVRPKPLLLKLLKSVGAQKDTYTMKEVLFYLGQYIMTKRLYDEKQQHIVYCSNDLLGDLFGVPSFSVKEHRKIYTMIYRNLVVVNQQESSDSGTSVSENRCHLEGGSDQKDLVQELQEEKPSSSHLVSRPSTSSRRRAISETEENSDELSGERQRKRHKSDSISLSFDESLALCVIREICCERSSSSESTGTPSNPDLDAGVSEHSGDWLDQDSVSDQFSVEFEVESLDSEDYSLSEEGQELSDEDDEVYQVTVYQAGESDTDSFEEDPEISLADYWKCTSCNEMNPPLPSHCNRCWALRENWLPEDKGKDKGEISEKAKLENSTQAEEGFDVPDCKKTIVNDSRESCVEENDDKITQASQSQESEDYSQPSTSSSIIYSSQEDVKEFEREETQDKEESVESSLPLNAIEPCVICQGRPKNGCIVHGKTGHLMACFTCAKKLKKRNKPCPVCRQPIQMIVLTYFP

Q: Which IC50 does the source give for `COc1cc(OCCF)ncc1-c1nc2c(n1C(C)C)[C@]1(C(=O)Nc3cc(Cl)ccc31)N(c1cc(Cl)ccc1C)C2=O` [Example R-163, (R)-6-chloro-5′-(5-chloro-2-methylphenyl)-2′-(6-(2-fluoroethoxy)-4-methoxypyridin-3-yl)-3′-isopropyl-3′H-spiro[dihydroindole-3,4′-pyrrolo[3,4-d]imidazole]-2,6′(5′H)-dione] here?
A: The IC50 was 166 nM.

Q: For `COc1ncncc1-c1nc2c(n1C(C)C)[C@]1(C(=O)Nc3cc(Cl)ccc31)N(c1cc(Cl)ccc1C)C2=O` [Example R-27, (R)-6-chloro-5′-(5-chloro-2-methylphenyl)-3′-isopropyl-2′-(4-methoxypyrimidin-5-yl)-3′H-spiro[dihydroindole-3,4′-pyrrolo[3,4-d]imidazole]-2,6′(5′H)-dione], which IC50 is on record?
A: Its IC50 is 924 nM.

Q: For `COc1cc(C(N)=O)ccc1-c1nc2c(n1C(C)C)[C@]1(C(=O)Nc3cc(Cl)ccc31)N(c1cc(Cl)ccc1C)C2=O` [Example R-77, (R)-4-(6-chloro-5′-(5-chloro-2-methylphenyl)-3′-isopropyl-2,6′-dioxo-5′,6′-dihydro-3′H-spiro[dihydroindole-3,4′-pyrrolo[3,4-d]imidazole]-2′-yl)-3-methoxybenzamide], which IC50 is on record?
A: Its IC50 is 139 nM.

Q: Which IC50 does the source give for `COc1cc(C(C)C)ncc1-c1nc2c(n1C(C)C)[C@]1(C(=O)Nc3cc(Cl)ccc31)N(c1cc(Cl)ccc1C)C2=O` [Example R-164, (R)-6-chloro-5′-(5-chloro-2-methylphenyl)-3′-isopropyl-2′-(6-isopropyl-4-methoxypyridin-3-yl)-3′H-spiro[dihydroindole-3,4′-pyrrolo[3,4-d]imidazole]-2,6′(5′H)-dione] here?
A: The IC50 was 592 nM.

Q: `COc1cc(OC(F)(F)F)ccc1-c1nc2c(n1C(C)C)[C@]1(C(=O)Nc3cc(Cl)ccc31)N(c1cccc(Cl)c1)C2=O` [Example R-120, (R)-6-chloro-5′-(3-chlorophenyl)-3′-isopropyl-2′-(2-methoxy-4-(trifluoromethoxy)phenyl)-3′H-spiro[dihydroindole-3,4′-pyrrolo[3,4-d]imidazole]-2,6′(5′H)-dione] was tested. Which IC50 did it give?
A: Its IC50 is 4780 nM.

Q: With `COc1cc(C(C)C)ncc1-c1nc2c(n1C(C)C)[C@]1(C(=O)Nc3cc(Cl)ccc31)N(c1cc(Cl)cnc1C)C2=O` [Example R-166, (R)-6-chloro-5′-(5-chloro-2-methylpyridin-3-yl)-3′-isopropyl-2′-(6-isopropyl-4-methoxypyridin-3-yl)-3′H-spiro[dihydroindole-3,4′-pyrrolo[3,4-d]imidazole]-2,6′(5′H)-dione] as the molecule, how does the IC50 read?
A: The IC50 was 957 nM.

Q: Which IC50 does the source give for `COc1cc(C2CC2)ccc1-c1nc2c(n1C(C)C)[C@]1(C(=O)Nc3cc(Cl)ccc31)N(c1cc(Cl)ccc1C)C2=O` [Example R-86, (R)-6-chloro-5′-(5-chloro-2-methylphenyl)-2′-(4-cyclopropyl-2-methoxyphenyl)-3′-isopropyl-3′H-spiro[dihydroindole-3,4′-pyrrolo[3,4-d]imidazole]-2,6′(5′H)-dione] here?
A: Its IC50 is 142 nM.

Q: Which IC50 does the source give for `COc1ncc(-c2nc3c(n2C2CCC2)[C@]2(C(=O)Nc4cc(Cl)ccc42)N(c2cc(Cl)ccc2C)C3=O)c(OC)n1` [Example R-41, (R)-6-chloro-5′-(5-chloro-2-methylphenyl)-3′-cyclobutyl-2′-(2,4-dimethoxypyrimidin-5-yl)-3′H-spiro[dihydroindole-3,4′-pyrrolo[3,4-d]imidazole]-2,6′(5′H)-dione] here?
A: Its IC50 is 7320 nM.

Q: With `CCOc1ccc(-c2nc3c(n2C(C)C)[C@]2(C(=O)Nc4cc(Cl)ccc42)N(c2cc(Cl)ccc2C)C3=O)c(OC)n1` [Example R-146, (R)-6-chloro-5′-(5-chloro-2-methylphenyl)-2′-(6-ethoxy-2-methoxypyridin-3-yl)-3′-isopropyl-3′H-spiro[dihydroindole-3,4′-pyrrolo[3,4-d]imidazole]-2,6′(5′H)-dione] as the molecule, how does the IC50 read?
A: Its IC50 is 6710 nM.

Q: `COc1nc(N(C)C)ncc1-c1nc2c(n1C(C)C)[C@]1(C(=O)Nc3cc(Cl)ccc31)N(c1cc(Cl)cnc1C)C2=O` [Example R-135, (R)-6-chloro-5′-(5-chloro-2-methylpyridin-3-yl)-2′-(2-(dimethylamino)-4-methoxypyrimidin-5-yl)-3′-isopropyl-3′H-spiro[dihydroindole-3,4′-pyrrolo[3,4-d]imidazole]-2,6′(5′H)-dione] was tested. Which IC50 did it give?
A: The IC50 was 423 nM.

Q: With `COc1nc(C2CC2)ncc1-c1nc2c(n1C(C)C)[C@]1(C(=O)Nc3cc(Cl)ccc31)N(c1cc(F)cc(Cl)c1)C2=O` [Example R-174, (R)-6-chloro-5′-(3-chloro-5-fluorophenyl)-2′-(2-cyclopropyl-4-methoxypyrimidin-5-yl)-3′-isopropyl-3′H-spiro[dihydroindole-3,4′-pyrrolo[3,4-d]imidazole]-2,6′(5′H)-dione] as the molecule, how does the IC50 read?
A: Its IC50 is 515 nM.

Q: How did the IC50 turn out when `COc1cc(OC)c(-c2nc3c(n2C(C)C)[C@]2(C(=O)Nc4cc(Cl)ccc42)N(c2cc(Cl)cnc2C)C3=O)cn1` [Example R-131, (R)-6-chloro-5′-(5-chloro-2-methylpyridin-3-yl)-2′-(4,6-dimethoxypyridin-3-yl)-3′-isopropyl-3′H-spiro[dihydroindole-3,4′-pyrrolo[3,4-d]imidazole]-2,6′(5′H)-dione] was run?
A: Its IC50 is 120 nM.

Q: `COc1cc(C2CC2)ncc1-c1nc2c(n1C(C)C)[C@]1(C(=O)Nc3cc(Cl)ccc31)N(c1cc(F)cc(Cl)c1)C2=O` [Example R-176, (R)-6-chloro-5′-(3-chloro-5-fluorophenyl)-2′-(6-cyclopropyl-4-methoxypyridin-3-yl)-3′-isopropyl-3′H-spiro[dihydroindole-3,4′-pyrrolo[3,4-d]imidazole]-2,6′(5′H)-dione] was tested. Which IC50 did it give?
A: The IC50 was 321 nM.

Q: `COc1ncc(-c2nc3c(n2C(C)C)[C@@]2(C(=O)Nc4cc(Cl)ccc42)N(c2cc(C)ccc2C)C3=O)c(OC)n1` [Example S-56, (S)-6-chloro-2′-(2,4-dimethoxypyrimidin-5-yl)-5′-(2,5-dimethylphenyl)-3′-isopropyl-3′H-spiro[dihydroindole-3,4′-pyrrolo[3,4-d]imidazole]-2,6′(5′H)-dione] was tested. Which IC50 did it give?
A: Its IC50 is 5.19 nM.

Q: For `COc1cc(OC2CC2)ncc1-c1nc2c(n1C(C)C)[C@]1(C(=O)Nc3cc(Cl)ccc31)N(c1cc(Cl)ccc1C)C2=O` [Example R-110, (R)-6-chloro-5′-(5-chloro-2-methylphenyl)-2′-(6-cyclopropoxy-4-methoxypyridin-3-yl)-3′-isopropyl-3′H-spiro[dihydroindole-3,4′-pyrrolo[3,4-d]imidazole]-2,6′(5′H)-dione], which IC50 is on record?
A: Its IC50 is 704 nM.

Q: How did the IC50 turn out when `COc1nc(N)ncc1-c1nc2c(n1C(C)C)[C@]1(C(=O)Nc3cc(Cl)ccc31)N(c1cc(Cl)ccc1C)C2=O` [Example R-90, (R)-2′-(2-amino-4-methoxypyrimidin-5-yl)-6-chloro-5′-(5-chloro-2-methylphenyl)-3′-isopropyl-3′H-spiro[dihydroindole-3,4′-pyrrolo[3,4-d]imidazole]-2,6′(5′H)-dione] was run?
A: Its IC50 is 310 nM.

Q: With `COc1ccc(-c2nc3c(n2C(C)C)[C@]2(C(=O)Nc4cc(Cl)ccc42)N(c2cc(Cl)ccc2F)C3=O)c(OC)c1` [Example R-80, (R)-6-chloro-5′-(5-chloro-2-fluorophenyl)-2′-(2,4-dimethoxyphenyl)-3′-isopropyl-3′H-spiro[dihydroindole-3,4′-pyrrolo[3,4-d]imidazole]-2,6′(5′H)-dione] as the molecule, how does the IC50 read?
A: The IC50 was 363 nM.

Q: Which IC50 does the source give for `CCN(CC)c1ccc(-c2nc3c(n2C(C)C)[C@]2(C(=O)Nc4cc(Cl)ccc42)N(c2cc(Cl)ccc2C)C3=O)c(OC)c1` [Example R-105, (R)-6-chloro-5′-(5-chloro-2-methylphenyl)-2′-(4-(diethylamino)-2-methoxyphenyl)-3′-isopropyl-3′H-spiro[dihydroindole-3,4′-pyrrolo[3,4-d]imidazole]-2,6′(5′H)-dione] here?
A: The IC50 was 343 nM.

Q: `CCc1ccc(OC)c(-c2nc3c(n2C(C)C)[C@]2(C(=O)Nc4cc(Cl)ccc42)N(c2cccc(Cl)c2)C3=O)c1` [Example R-38, (R)-6-chloro-5′-(3-chlorophenyl)-2′-(5-ethyl-2-methoxyphenyl)-3′-isopropyl-3′H-spiro[dihydroindole-3,4′-pyrrolo[3,4-d]imidazole]-2,6′(5′H)-dione] was tested. Which IC50 did it give?
A: Its IC50 is 1120 nM.

Same assay, conditions: labels are Example numbers; the compounds with S-configuration are meant

Q: With `COc1ncc(-c2nc3c(n2C(C)C)C2(C(=O)Nc4cc(Cl)ccc42)N(c2ccc(OC)c(Cl)c2)C3=O)c(OC)n1` (stereo not drawn) [Example 48, 6-chloro-5′-(3-chloro-4-methoxyphenyl)-2′-(2,4-dimethoxypyrimidin-5-yl)-3′-isopropyl-3′H-spiro[dihydroindole-3,4′-pyrrolo[3,4-d]imidazole]-2,6′(5′H)-dione] as the molecule, how does the “inhibitory effect on MDM2 compared with positive control compound HDM201” value read?
A: Its value is “better”.

Q: `COc1cc(OC)c(-c2nc3c(n2C(C)C)C2(C(=O)Nc4cc(Cl)ccc42)N(c2cc(F)cc(Cl)c2)C3=O)cn1` (stereo not drawn) [Example 175, 6-chloro-5′-(3-chloro-5-fluorophenyl)-2′-(4,6-dimethoxypyridin-3-yl)-3′-isopropyl-3′H-spiro[dihydroindole-3,4′-pyrrolo[3,4-d]imidazole]-2,6′(5′H)-dione] was tested. Which “inhibitory effect on MDM2 compared with positive control compound HDM201” value did it give?
A: The value was “better”.

Q: `COc1nc(OCCF)ncc1-c1nc2c(n1C(C)C)C1(C(=O)Nc3cc(Cl)ccc31)N(c1cc(Cl)cnc1C)C2=O` (stereo not drawn) [Example 170, 6-chloro-5′-(5-chloro-2-methylpyridin-3-yl)-2′-(2-(2-fluoroethoxy)-4-methoxypyrimidin-5-yl)-3′-isopropyl-3′H-spiro[dihydroindole-3,4′-pyrrolo[3,4-d]imidazole]-2,6′(5′H)-dione] was tested. Which “inhibitory effect on MDM2 compared with positive control compound HDM201” value did it give?
A: Its value is “better”.

Q: With `COc1ccc(C(N)=O)cc1-c1nc2c(n1C(C)C)C1(C(=O)Nc3cc(Cl)ccc31)N(c1cc(Cl)ccc1C)C2=O` (stereo not drawn) [Example 29, 3-(6-chloro-5′-(5-chloro-2-methylphenyl)-3′-isopropyl-2,6′-dioxo-5′,6′-dihydro-3′H-spiro[dihydroindole-3,4′-pyrrolo[3,4-d]imidazole]-2′-yl)-4-methoxybenzamide] as the molecule, how does the “inhibitory effect on MDM2 compared with positive control compound HDM201” value read?
A: The value was “better”.

Q: How did the “inhibitory effect on MDM2 compared with positive control compound HDM201” value turn out when `COc1nc(N)ncc1-c1nc2c(n1C(C)C)C1(C(=O)Nc3cc(Cl)ccc31)N(c1cc(Cl)ccc1C)C2=O` (stereo not drawn) [Example 90, 2′-(2-amino-4-methoxypyrimidin-5-yl)-6-chloro-5′-(5-chloro-2-methylphenyl)-3′-isopropyl-3′H-spiro[dihydroindole-3,4′-pyrrolo[3,4-d]imidazole]-2,6′(5′H)-dione] was run?
A: The value was “better”.
